Test results as given in patent US20240424107A1, “PREPARATION OF SITE-SPECIFIC POLYPEPTIDE CONJUGATES” (POSTECH RESEARCH AND BUSINESS DEVELOPMENT FOUNDATION, priority 2023, published 2024).

Target: T1, Human-alpha thrombin (Homo sapiens, UniProt P00734)
T1 construct: Human-alpha thrombin and its well-known aptamers, HD1
Assay: Covalent conjugation of oxanine-containing aptamer to thrombin, conversion rate over time (SDS-PAGE/electrophoresis)
Type: biochemical
Details: thrombin 1.25 μM, HEPES pH 8.4, 37° C., FIG. 3
Method: Human-alpha thrombin and its well-known aptamers, HD1 (15-mer length of aptamer that binds to exosite I of thrombin; 5′-[…]-3′; SEQ ID NO: 1) and HD2 (29-mer length of aptamer that binds to exosite II of thrombin; 5′-[…]-3′; SEQ ID NO: 2) were used. Each aptamer labeled with fluorescent dye at 5′-terminus and 10 dOTPs at 3′-terminus was prepared (See Example 1-1) and mixed with thrombin. Specifically, thrombin (1.25 μM), NaCl (100 mM), MgCl2 (5 mM), KCl (5 mM), Tween-20 (0.01% v/v), and oxanine-inserted HD1 (1 equiv. relative to thrombin) and HD2 (2 equiv. relative to thrombin) in HEPES (50 mM pH 8.4) were mixed at 37° C. for 1 day.
Whether the aptamer brings oxanine close to the amine group of the target protein, enabling proximity-enhanced covalent bond formation, was monitored with SDS-PAGE (protein bands) and electrophoresis (DNA bands). As a comparison group, aptamers HD1 and HD2 without oxanine introduced, or random DNA (not aptamer) with oxanine introduced, were used, and an untreated control group without any treatment with thrombin was also used for comparison.

Substance | time to reach 50% modification rate (conversion of aptamer to aptamer-thrombin conjugate) [min]
HD1: 15-mer thrombin exosite I aptamer 5′-GGTTGGTGTGGTTGG-3′ with fluorescent dye at 5′-terminus and 10 dOTPs (oxanine) at 3′-terminus (DNA, backbone not given here; 5' fluorescent dye, 3' tail of ten oxanine deoxynucleotides) | ≤ 12.6
HD22: 29-mer thrombin exosite II aptamer 5′-AGTCCGTGGTAGGGCAGGTTGGGGTGACT-3′ with fluorescent dye at 5′-terminus and 10 dOTPs (oxanine) at 3′-terminus (DNA, backbone not given here; 5' fluorescent dye, 3' tail of ten oxanine deoxynucleotides) | ≤ 101
